The values below are quoted from earlier work in patent US20130085131A1, “HETEROCYCLIC COMPOUNDS AND THEIR USES” (Amgen Inc., priority 2010, published 2013).

Data set [1] concerns mouse model of rheumatoid arthritis.
The subject of data set [2] is model of systemic lupus erythematosis. Particulars: in vivo.
Data set [3] addresses T1, p110δ (Homo sapiens, UniProt O00329).
T1 sequence (O00329 1-1044): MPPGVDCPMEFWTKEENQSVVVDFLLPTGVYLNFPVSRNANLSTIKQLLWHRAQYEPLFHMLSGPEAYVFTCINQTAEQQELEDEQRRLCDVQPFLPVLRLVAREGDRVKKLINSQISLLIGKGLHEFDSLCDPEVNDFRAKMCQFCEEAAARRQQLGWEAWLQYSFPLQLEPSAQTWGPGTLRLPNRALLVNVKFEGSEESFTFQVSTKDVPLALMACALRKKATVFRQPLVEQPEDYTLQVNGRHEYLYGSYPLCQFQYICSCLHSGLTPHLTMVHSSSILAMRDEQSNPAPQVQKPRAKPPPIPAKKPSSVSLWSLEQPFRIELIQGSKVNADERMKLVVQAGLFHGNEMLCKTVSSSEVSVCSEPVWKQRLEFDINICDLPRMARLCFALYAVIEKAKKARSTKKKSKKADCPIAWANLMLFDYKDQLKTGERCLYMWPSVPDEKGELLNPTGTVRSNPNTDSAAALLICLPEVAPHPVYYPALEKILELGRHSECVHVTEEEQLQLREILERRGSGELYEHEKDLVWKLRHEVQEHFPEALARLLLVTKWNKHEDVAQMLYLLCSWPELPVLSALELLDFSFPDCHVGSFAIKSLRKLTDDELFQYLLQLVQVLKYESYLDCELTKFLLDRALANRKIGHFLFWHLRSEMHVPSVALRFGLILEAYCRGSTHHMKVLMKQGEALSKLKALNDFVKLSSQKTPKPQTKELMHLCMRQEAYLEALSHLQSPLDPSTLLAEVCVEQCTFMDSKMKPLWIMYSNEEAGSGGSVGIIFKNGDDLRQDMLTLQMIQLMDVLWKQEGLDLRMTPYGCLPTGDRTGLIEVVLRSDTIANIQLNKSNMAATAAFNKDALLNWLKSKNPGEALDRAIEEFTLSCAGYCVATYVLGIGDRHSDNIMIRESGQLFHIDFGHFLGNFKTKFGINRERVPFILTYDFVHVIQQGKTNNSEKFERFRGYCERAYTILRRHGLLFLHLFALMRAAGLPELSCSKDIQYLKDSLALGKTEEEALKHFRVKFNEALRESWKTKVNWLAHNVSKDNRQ

Data set [4] has as its system protein kinases.
Data set [5] relates to murine model of allergic disease. As to conditions: absence of functional delta (IC 87114 and p110δ D910A mice).
Data set [6] deals with murine model of asthma. As to conditions: ovalbumin-induced airway inflammation.

As for `O=C1NC(=O)/C(=C\c2ccc3nccnc3c2)S1` [AS 605240], the “efficacy in a mouse model of rheumatoid arthritis” value in data set [1] was “efficacious”. For the same compound, the “onset of disease in a model of systemic lupus erythematosis” value in data set [2] was “delay onset of disease”.

Take `Cc1ccccc1-n1c(Cn2cnc3c(N)ncnc32)nc2cccc(C)c2c1=O` [IC87114]: in data set [3], the “inhibition of p110δ” value is “high nanomolar range (triple digit)”. Also, in data set [4], the “activity against any protein kinases tested” value is “no activity”. Further, in data set [5], the “passive cutaneous anaphylaxis (PCA)” value is “significantly reduced”. Besides, the “inflammation and disease in a murine model of asthma” value in data set [6] is listed as “significantly ameliorate”.
